Where two headings read alike, the source gives them in different places.
How the values were obtained:
[1] = tested on: progesterone release in syncytialised BeWo cells; assay: Steroidogenesis (progesterone release) in syncytialised BeWo cells; type: cell-based, human; settings: 48 h; for progesterone release (in words): crizotinib 1 μM, paclitaxel 3 nM, cisplatin 100 μM, carboplatin 100 μM
Experimental: (§1) Two human choriocarcinoma-derived placental cell lines were used: JEG3 and BeWo (ATCC catalog numbers HTB-36 and CCL-98, respectively). JEG3 cells were cultured in DMEM and Bewo cells in Ham’s F-12 K medium, supplemented with 10% fetal calf serum and 1% penicillin and streptomycin under a humidified 5% CO2/95% air atmosphere at 37 °C. Cells were passaged (JEG3: 1:10 twice a week; BeWo: 1:3 once a week) after trypsinization with 0.05% Trypsin–EDTA when cells reached approximately 80% confluency. For BeWo cells, the medium was renewed 3 times a week. To create syncytialised BeWo cells, regular BeWo cells were treated with 50 μM forskolin (Sigma-Aldrich, St. Louis, MO, USA) in 0.1% DMSO, to initiate syncytialisation. As forskolin increases the intracellular cAMP levels, it activates protein kinase A after which syncytialisation and fusion of trophoblasts occurs (Orendi et al. [2010]).
For doxorubicin, only two concentrations were tested. Conditioned medium, containing the secreted hormones, was collected after 48 h exposure to the TKIs and cytostatic drugs and stored at − 80 °C until analysis. To eliminate the influence of the varying cell densities between the wells, total protein content in each well was measured. Cells were washed twice with Hank’s buffered Salt Solution (HBSS) and lysed with 50 μL 1 M sodium hydroxide (NaOH). Subsequently, 10 μL of the lysate was mixed with 190 μL of 5 times diluted dye reagent (Biorad protein assay). The absorbance was measured at 595 nm using a Biorad Multiwell Plate reader. The quantities of protein in the samples were determined via a calibration curve of bovine serum albumin.
(§2) Progesterone and estrone concentrations in culture medium were determined by LC–MS/MS analysis using an Acquity UPLC (Waters, Milford, MA, USA) equipped with a C18 UPLC column (Acquity UPLC BEH C18, 2.1 × 50 mm, Milford, MA, USA, Waters) coupled to a Xevo TQ-S (Waters) triple quadrupole mass spectrometer. Progesterone-D9 was used as internal standard and calibration curves were made in the matrix. To precipitate proteins, methanol containing the internal standard was added to culture medium samples in a ratio 3:1 (MeOH:medium). Following subsequent centrifugation (13,000g for 3 min), 1 μl of the clear supernatant was injected into the LC–MS to quantify progesterone and estrone. Solvent A consisted of 0.2 mM NH4F in water and solvent B consisted of 0.2 mM NH4F in Acetonitrile:Methanol in a ratio of 75:25%. Separation was performed at a flow rate of 350 µl/min under the following gradient conditions: 0 min 60% eluent A, 3.0 min 0% eluent A, 4 min 0% eluent A, 5 min 60% eluent A. The effluent from the UPLC was passed directly into the electrospray ion source. Positive electrospray ionization was achieved using nitrogen as a desolation gas with ionization voltage at 600 V. The source temperature was set at 500 °C and argon was used as collision gas. The following SRM transitions were used: m/z 315.10 (parent ion) to m/z 69.9 and m/z 108.9 (both product ions) for progesterone, m/z 269.0 (parent ion) to m/z 144.9 and 158.9 (product ions) for estrone, and m/z 324.2 (parent ion) to m/z 99.9 and m/z 112.9 (product ions) for the internal standard d9-progesterone. We also attempted to quantify estradiol and estriol levels in the culture medium of both explants and cells, but these were below the detection limit.

[2] = ref Gaver et al. [1988]; cited from earlier work
[3] = tested on: placental villous explants; assay: MTT assay in placental explants (tissue viability); type: cell-based, human; settings: 72 h exposure, 1, 10 or 100 µM
Experimental: (§3) Term placentas, obtained from consenting women following uncomplicated pregnancies and delivered vaginally or by caesarean section, were used for all experiments. Approval of the Regional Committee on Research involving Human Subjects was obtained (File 2014-1397). Within 60 min after delivery, 1 cm^3 villous tissue samples were excised at random areas midway between the umbilical cord and distal edge of the placenta. To remove maternal blood, samples were carefully rinsed in sterile Dulbecco’s phosphate-buffered saline supplemented with calcium chloride and magnesium chloride (Sigma-Aldrich, St. Louis, MO, USA) which was kept at 37 °C. The villous tissue was cut into small pieces weighing approximately 5 mg, after which 4–6 pieces of tissue were cultured together in individual wells of a 6-well plate. The explants were cultured in 1.5 ml of RPMI-1640 culture medium (Gibco, USA) with 15% heat-inactivated fetal bovine serum, 1% penicillin streptomycin, 1% gentamicin, and 1% amphotericin B (Life Technologies, USA). Placental explant cultures were kept for 7 days at 37 °C in a humidified gas mixture of 5% CO2 and 95% air. The culture medium was renewed every 24 h.
(§4) Treatment with TKIs or cytostatic drugs was started at day four of culture to allow for the syncytiotrophoblasts to regenerate (Siman et al. [2001]). Explants were then incubated for 72 h with 1, 10 or 100 µM of all TKIs or cytostatic drugs mentioned above. […] Culture medium was replaced every 24 h with new medium containing the original concentration of the drug. Supernatant was collected each day and stored at − 20 °C for hormone quantification.
(§5) To evaluate tissue and cell viability, after 72 h of drug exposure, tissue explants were incubated for 4 h at 37 °C with 1 mM 3-(4,5-dimethylthiazol-2-yl)-[…] (MTT) in RPMI. After incubation, the medium was removed, the tissue in each well was weighed, and the explants were subsequently placed in 500 µL DMSO for 10 min to dissolve the formazan formed. After 10 min, the DMSO was transferred to a 96-well plate and absorbance was measured at 540 nm using a Biorad Multiwell Plate reader.
(§6) Construction of graphs and data analysis were performed using Graphpad Prism version 8.4.2. MTT conversion and progesterone and estrone release in placental explants were normalized to tissue wet weight. To compare the effects on tissue viability and cell viability, the data were normalized to control conditions and mean differences were tested using an unpaired t test, a one-way ANOVA, or a two-way repeated measures ANOVA. The change in progesterone release rate as compared to the baseline (at 0 h) was calculated for each well separately, after which data were normalized to control conditions. One-way ANOVA was used to assess effects at the 72 h time point only. The Bonferroni post hoc test was applied to compare treatment conditions with controls. Data are described as mean ± SD in Figs. 2 and 3 and as mean ± SEM in all other figures where comparisons of means between groups were made. The mean and SD or SEM were calculated from all individual results (three experiments performed in duplicate or triplicate wells, n = 6 or n = 9).

[4] = tested on: progesterone and estrone release in placental explants; assay: Steroid (progesterone, estrone) release in placental explants, LC-MS/MS of culture medium; type: cell-based, human; settings: placental explants; for progesterone release relative to control (in words): 100 µM, 72 h exposure; for reduction in progesterone release (in words): 10 and 100 µM gefitinib, 100 μM imatinib, effects over time (Fig. S2A)
Experimental: as §3
Treatment with TKIs or cytostatic drugs was started at day four of culture to allow for the syncytiotrophoblasts to regenerate (Siman et al. [2001]). Explants were then incubated for 72 h with 1, 10 or 100 µM of all TKIs or cytostatic drugs mentioned above. […] For cisplatin and carboplatin, culture medium was used as a solvent. Culture medium was replaced every 24 h with new medium containing the original concentration of the drug. Supernatant was collected each day and stored at − 20 °C for hormone quantification.
as §2
Construction of graphs and data analysis were performed using Graphpad Prism version 8.4.2. MTT conversion and progesterone and estrone release in placental explants were normalized to tissue wet weight. To compare the effects on tissue viability and cell viability, the data were normalized to control conditions and mean differences were tested using an unpaired t test, a one-way ANOVA, or a two-way repeated measures ANOVA. […]

[5] = tested on: JEG-3, BeWo, and syncytialised BeWo cells; assay: MTT assay, cell viability in all three trophoblast cell types; type: cell-based, human
Experimental: as §1
The cells were seeded in 96-well culture plates at a cell density of 1 × 10^4 cells/well and cultured for 24 h at 37 °C in a humidified atmosphere with 5% CO2 to allow for attachment. Subsequently, the cells were exposed to the TKIs and cytostatic drugs in concentrations ranging from 100 pM to 100 µM (triplicate). […] This is a minimum percentage DMSO, but required as cells required co-incubation with forskolin to syncytialise. Crizotinib 100 μM was used as positive control. After attachment, cells were incubated with the compounds for 48 h, after which the medium was removed and the cells were exposed to […] diluted in medium. After 3 h of incubation with MTT, the formazan crystals formed were solubilized in 50 μL DMSO. The absorbance of formazan was measured at 540 nm by a Biorad Multiwell Plate reader.

[6] = tested on: progesterone release in BeWo cells; assay: Progesterone release in BeWo cells in control conditions (forskolin-induced syncytialisation); type: cell-based; settings: Homo sapiens, 48 h, read-out: progesterone production, % of control
Experimental: Two human choriocarcinoma-derived placental cell lines were used: JEG3 and BeWo (ATCC catalog numbers HTB-36 and CCL-98, respectively). JEG3 cells were cultured in DMEM and Bewo cells in Ham’s F-12 K medium, supplemented with 10% fetal calf serum and 1% penicillin and streptomycin under a humidified 5% CO2/95% air atmosphere at 37 °C. Cells were passaged (JEG3: 1:10 twice a week; BeWo: 1:3 once a week) after trypsinization with 0.05% Trypsin–EDTA when cells reached approximately 80% confluency. For BeWo cells, the medium was renewed 3 times a week. […]
For doxorubicin, only two concentrations were tested. […] To eliminate the influence of the varying cell densities between the wells, total protein content in each well was measured. […] The absorbance was measured at 595 nm using a Biorad Multiwell Plate reader. The quantities of protein in the samples were determined via a calibration curve of bovine serum albumin.
Progesterone and estrone concentrations in culture medium were determined by LC–MS/MS analysis using an Acquity UPLC (Waters, Milford, MA, USA) equipped with a C18 UPLC column (Acquity UPLC BEH C18, 2.1 × 50 mm, Milford, MA, USA, Waters) coupled to a Xevo TQ-S (Waters) triple quadrupole mass spectrometer. […] Following subsequent centrifugation (13,000g for 3 min), 1 μl of the clear supernatant was injected into the LC–MS to quantify progesterone and estrone. […]

[7] = MTT assay in placental explants (tissue viability); type: cell-based, human; settings: female, human, term placental villous tissue explants, 100 µM, 72 h exposure, mean ± SEM, read-out: tissue viability, % of control
Experimental: as §3, §4, §5, §6

[8] = parameters: method as in Berveiller et al. [2018]; settings: in vivo; ref Berveiller et al. [2018]; cited from earlier work
[9] = tested on: undifferentiated BeWo cells; assay: MTT assay, cell viability in undifferentiated BeWo cells; type: cell-based; settings: Homo sapiens, 48 h exposure, read-out: concentration giving 50% reduction in cell viability
Experimental: as §1
The cells were seeded in 96-well culture plates at a cell density of 1 × 10^4 cells/well and cultured for 24 h at 37 °C in a humidified atmosphere with 5% CO2 to allow for attachment. Subsequently, the cells were exposed to the TKIs and cytostatic drugs in concentrations ranging from 100 pM to 100 µM (triplicate). […] The absorbance of formazan was measured at 540 nm by a Biorad Multiwell Plate reader.

[10] = tested on: syncytialised BeWo cells; type: cell-based, human
Experimental: The cells were seeded in 96-well culture plates at a cell density of 1 × 10^4 cells/well and cultured for 24 h at 37 °C in a humidified atmosphere with 5% CO2 to allow for attachment. Subsequently, the cells were exposed to the TKIs and cytostatic drugs in concentrations ranging from 100 pM to 100 µM (triplicate). […] This is a minimum percentage DMSO, but required as cells required co-incubation with forskolin to syncytialise. Crizotinib 100 μM was used as positive control. […] The absorbance of formazan was measured at 540 nm by a Biorad Multiwell Plate reader.

[11] = tested on: isolated third trimester primary trophoblasts; parameters: method as in Berveiller et al. [2018]; settings: ref Berveiller et al. [2018], read-out: concentration giving 50% reduction in cell viability; cited from earlier work
[12] = 50 µM, 24 h, 48 h and 72 h exposure starting at day 4

N.N.O=C([O-])C1(C(=O)[O-])CCC1.[Pt+2] [carboplatin]
progesterone release (in words) ([1]; not statistically significant): slight induction of progesterone release | plasma concentration (may be as high as) [2]: ≤ 100 µM

N.N.[Cl][Pt][Cl] [cisplatin]
progesterone release (in words) ([1]; not statistically significant): slight induction of progesterone release

C[C@@H](Oc1cc(-c2cnn(C3CCNCC3)c2)cnc1N)c1c(Cl)ccc(F)c1Cl [crizotinib, Crizotinib]
effect on tissue viability (in words) [3]: fully inhibited tissue viability | progesterone release relative to control (in words) [4]: statistically significant reduction in progesterone release | progesterone release (in words) ([1]; not statistically significant): slight induction of progesterone release

C=C[C@@]1(C)CC(=O)[C@]2(O)[C@@]3(C)[C@@H](O)CCC(C)(C)[C@@H]3[C@H](O)[C@H](OC(C)=O)[C@@]2(C)O1 [forskolin]
estrone release (in words) [4, 12]: significant induction in estrone release | progesterone release (in words) [4, 12]: not progesterone release | effect on cell viability (in words) ([5]; JEG-3 or BeWo cells, 50 μM, 48 h incubation): did not alter cell viability | activity at 50 µM ([6]; Forskolin 50 μM in 0.1% DMSO): 370 ± 50% | activity at 50 µM ([6]; Forskolin 50 μM in 0.5% DMSO): 215 ± 12%

COc1cc2ncnc(Nc3ccc(F)c(Cl)c3)c2cc1OCCCN1CCOCC1 [gefitinib]
viability at 72 h, 100 µM [7]: 24 ± 4% | reduction in progesterone release (in words) [4]: only statistically significant if effects over time were analyzed

Cc1ccc(NC(=O)c2ccc(CN3CCN(C)CC3)cc2)cc1Nc1nccc(-c2cccnc2)n1 [imatinib, Imatinib]
reduction in progesterone release (in words) [4]: only statistically significant if effects over time were analyzed | activity at 10 µM ([1]; Homo sapiens, 10 µM, not statistically significant, read-out: progesterone release, % of control): 76 ± 9%

CC(=O)O[C@H]1C(=O)[C@@]2(C)[C@H]([C@H](OC(=O)c3ccccc3)[C@]3(O)C[C@H](OC(=O)[C@H](O)[C@@H](NC(=O)c4ccccc4)c4ccccc4)C(C)=C1C3(C)C)[C@]1(OC(C)=O)CO[C@@H]1C[C@@H]2O [paclitaxel]
effect on tissue viability (in words) [3]: moderately affected tissue viability, but this was not statistically significant | concentration in placental tissue compared to maternal levels at delivery [8]: ten-fold higher | IC50 [9]: 1 to 3 nM | cytotoxicity in syncytialised BeWo cells compared to undifferentiated BeWo and JEG3 cells (in words) ([10]; 48 h exposure): consistently less cytotoxic in syncytialised BeWo cells | IC50 [11]: 18 to 180 nM | IC50 ([5]; Homo sapiens, all cell types (JEG-3, BeWo, syncytialised BeWo), 48 h exposure, read-out: concentration at which cell viability was reduced to 50% or less): 3 to 10 nM | progesterone release (in words) ([1]; not statistically significant): slight induction of progesterone release

CCN(CC)CCNC(=O)c1c(C)[nH]c(/C=C2\C(=O)Nc3ccc(F)cc32)c1C [sunitinib, sunitinib malate]
effect on tissue viability (in words) [3]: fully inhibited tissue viability | cytotoxicity in syncytialised BeWo cells compared to undifferentiated BeWo and JEG3 cells (in words) [10]: inhibited cell viability at multiple concentrations to a lesser extent in syncytialised BeWo cells | progesterone release relative to control (in words) [4]: statistically significant reduction in progesterone release | activity at 1 µM ([1]; Homo sapiens, 1 µM, P < 0.05, read-out: progesterone release, % of control): 76 ± 6% | activity at 3 µM ([1]; Homo sapiens, 3 µM, P < 0.001, read-out: progesterone release, % of control): 50 ± 4%
